Experimental data published in patent US11299478B2, “2-cyanopyrimidin-4-yl carbamate or urea derivative or salt thereof, and pharmaceutical composition including same” (HANLIM PHARMACEUTICAL CO., LTD., priority 2018, dated 2022).

Key:
Format in all cases: biochemical
cathepsin B = cathepsin B (Homo sapiens, UniProt P07858); assay: Inhibitory activity assay against cathepsin B (enzyme assay); conditions: Z-Arg-Arg-AMC 40 μM, enzyme 1 nM, pH 6.0, 90 minutes
Experimental: In order to measure the enzyme activity of cathepsin B, a buffer solution (pH 6.0) consisting of 50 mM MES, 5 mM DTT, 2.5 mM EDTA, 0.005% Polysorbate 20, and 10% DMSO was prepared. The substrate, the test material, and the enzyme were mixed in the buffer solution in a predetermined concentration. The Z-Arg-Arg-AMC substrate was used in the final concentration of 40 μM. The test material was used in the final concentrations of 10.0 μM, 3.33 μM, 1.11 μM, 0.370 μM, 0.123 μM, 0.0412 μM, 0.0137 μM, 0.00457 μM, 0.00152 μM, and 0.000508 μM, respectively. The cathepsin B enzyme was used in the final concentration of 1 nM. The final volume of the enzyme reaction solution was 10 μL. After reacting the mixture of substrate, test material, and enzyme for 90 minutes, the enzyme activity was measured with the EnVision (Perkin Elmer) microplate reader at an absorption wavelength of 340 nm and an emission wavelength of 460 nm. IC50 values were determined using 4-parameter logistic curve fit program of GraphPad Prism.

cathepsin K = biological target: T1, cathepsin K (Homo sapiens, UniProt P43235); assay: Inhibitory activity assay against cathepsin K (enzyme assay); conditions: Z-Phe-Arg-AMC 10 μM, enzyme 1 nM, pH 5.5, 30 minutes
T1 sequence (P43235 115-329): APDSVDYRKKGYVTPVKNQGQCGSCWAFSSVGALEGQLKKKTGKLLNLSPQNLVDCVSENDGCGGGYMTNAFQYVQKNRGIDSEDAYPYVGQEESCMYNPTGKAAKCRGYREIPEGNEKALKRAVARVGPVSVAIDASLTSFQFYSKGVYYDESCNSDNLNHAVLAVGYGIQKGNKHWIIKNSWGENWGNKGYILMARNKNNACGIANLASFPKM
Experimental: In order to measure the enzyme activity of cathepsin K, a buffer solution (pH 5.5) consisting of 50 mM 2-(N-morpholino)ethanesulfonic acid (MES), 2 mM dithiothreitol (DTT), 2.5 mM ethylenediaminetetraacetic acid (EDTA), 0.01% Triton X-100, and 10% dimethyl sulfoxide (DMSO) was prepared. The substrate, the test material, and the enzyme were mixed in the buffer solution in a predetermined concentration. The Z-Phe-Arg-AMC substrate was used in the final concentration of 10 μM. The test material was used in the final concentrations of 10.0 μM, 3.33 μM, 1.11 μM, 0.370 μM, 0.123 μM, 0.0412 μM, 0.0137 μM, 0.00457 μM, 0.00152 μM, and 0.000508 μM, respectively. The cathepsin K enzyme was used in the final concentration of 1 nM. The final volume of the enzyme reaction solution was 10 μL. After reacting the mixture of substrate, test material, and enzyme for 30 minutes, the enzyme activity was measured with the Synergy Neo (Biotek) microplate reader at an absorption wavelength of 355 nm and an emission wavelength of 460 nm. IC50 values were determined using 4-parameter logistic curve fit program of GraphPad Prism.

cathepsin S = cathepsin S (Homo sapiens, UniProt P25774); assay: Inhibitory activity assay against cathepsin S (enzyme assay); conditions: Z-Phe-Arg-AMC 70 μM, enzyme 3 nM, pH 6.5, 45 minutes
Chain of cathepsin S (P25774 115-331, species assumed): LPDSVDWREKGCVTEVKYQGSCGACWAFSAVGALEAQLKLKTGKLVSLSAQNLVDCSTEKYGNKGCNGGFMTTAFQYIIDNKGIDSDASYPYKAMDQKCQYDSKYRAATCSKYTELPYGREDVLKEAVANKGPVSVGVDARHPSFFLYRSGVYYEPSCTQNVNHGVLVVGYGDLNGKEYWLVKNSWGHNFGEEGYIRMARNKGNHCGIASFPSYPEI
Experimental: In order to measure the enzyme activity of cathepsin S, a buffer solution (pH 6.5) consisting of 50 mM MES, 2.5 mM DTT, 1.0 mM EDTA, 0.001% bovine serum albumin (BSA), and 10% DMSO was prepared. The substrate, the test material, and the enzyme were mixed in the buffer solution in a predetermined concentration. The Z-Phe-Arg-AMC substrate was used in the final concentration of 70 μM. The test material was used in the final concentrations of 10.0 μM, 3.33 μM, 1.11 μM, 0.370 μM, 0.123 μM, 0.0412 μM, 0.0137 μM, 0.00457 μM, 0.00152 μM, and 0.000508 μM, respectively. The cathepsin S enzyme was used in the final concentration of 3 nM. The final volume of the enzyme reaction solution was 10 μL.
After reacting the mixture of substrate, test material, and enzyme for 45 minutes, the enzyme activity was measured with the EnVision (Perkin Elmer) microplate reader at an absorption wavelength of 340 nm and an emission wavelength of 460 nm. IC50 values were determined using 4-parameter logistic curve fit program of GraphPad Prism.

cathepsin L = cathepsin L (Homo sapiens, UniProt P07711); assay: Inhibitory activity assay against cathepsin L (enzyme assay); conditions: Z-Phe-Arg-AMC 2 μM, enzyme 3 nM, pH 5.5, 30 minutes
Chain of cathepsin L (P07711 114-333, species assumed): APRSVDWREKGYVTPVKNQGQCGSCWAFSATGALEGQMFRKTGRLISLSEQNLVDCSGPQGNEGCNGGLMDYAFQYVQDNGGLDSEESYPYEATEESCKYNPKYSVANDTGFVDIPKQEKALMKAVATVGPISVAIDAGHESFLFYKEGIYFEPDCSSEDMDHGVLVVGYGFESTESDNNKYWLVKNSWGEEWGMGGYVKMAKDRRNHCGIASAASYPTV
Experimental: In order to measure the enzyme activity of cathepsin L, a buffer solution (pH 5.5) consisting of 50 mM MES, 2.5 mM DTT, 2.5 mM EDTA, 0.005% Polysorbate 20, and 10% DMSO was prepared. The substrate, the test material, and the enzyme were mixed in the buffer solution in a predetermined concentration. The Z-Phe-Arg-AMC substrate was used in the final concentration of 2 μM. The test material was used in the final concentrations of 10.0 μM, 3.33 μM, 1.11 μM, 0.370 μM, 0.123 μM, 0.0412 μM, 0.0137 μM, 0.00457 μM, 0.00152 μM, and 0.000508 μM, respectively. The cathepsin L enzyme was used in the final concentration of 3 nM. The final volume of the enzyme reaction solution was 10 μL. After reacting the mixture of substrate, test material, and enzyme for 30 minutes, the enzyme activity was measured with the EnVision (Perkin Elmer) microplate reader at an absorption wavelength of 340 nm and an emission wavelength of 460 nm. IC50 values were determined using 4-parameter logistic curve fit program of GraphPad Prism.

IC50 (cathepsin B) | IC50 (cathepsin K) | IC50 (cathepsin S) | IC50 (cathepsin L) | SMILES
> 10000 nM | 58.4 nM | > 10000 nM | 1420 nM | Cc1ccccc1COC(=O)NC1(c2ccnc(C#N)n2)CCCCC1 [Example 17, 2-methylbenzyl (1-(2-cyanopyrimidin-4-yl)cyclohexyl)carbamate]
> 10000 nM | 60.8 nM | 8320 nM | 1740 nM | N#Cc1nccc(C2(NC(=O)OCc3ccccc3F)CCCCC2)n1 [Example 18, 2-fluorobenzyl (1-(2-cyanopyrimidin-4-yl)cyclohexyl)carbamate]
> 10000 nM | 18 nM | 5850 nM | 1060 nM | N#Cc1nccc(C2(NC(=O)OCc3ccccc3Br)CCCCC2)n1 [Example 19, 2-bromobenzyl (1-(2-cyanopyrimidin-4-yl)cyclohexyl)carbamate]
> 10000 nM | 32.9 nM | 9230 nM | 2010 nM | N#Cc1nccc(C2(NC(=O)OCc3ccccc3C(F)(F)F)CCCCC2)n1 [Example 20, 2-(trifluoromethyl)benzyl (1-(2-cyanopyrimidin-4-yl)cyclohexyl)carbamate]
> 10000 nM | 83.8 nM | > 10000 nM | 2860 nM | COc1ccccc1COC(=O)NC1(c2ccnc(C#N)n2)CCCCC1 [Example 21, 2-methoxybenzyl (1-(2-cyanopyrimidin-4-yl)cyclohexyl)carbamate]
> 10000 nM | 37.2 nM | > 10000 nM | > 10000 nM | Cc1ccc(COC(=O)NC2(c3ccnc(C#N)n3)CCCCC2)cc1 [Example 22, 4-methylbenzyl (1-(2-cyanopyrimidin-4-yl)cyclohexyl)carbamate]
> 10000 nM | 19.9 nM | > 10000 nM | > 10000 nM | N#Cc1nccc(C2(NC(=O)OCc3ccc(Cl)cc3)CCCCC2)n1 [Example 23, 4-chlorobenzyl (1-(2-cyanopyrimidin-4-yl)cyclohexyl)carbamate]
> 10000 nM | 37.9 nM | > 10000 nM | > 10000 nM | N#Cc1nccc(C2(NC(=O)OCc3ccc(C(F)(F)F)cc3)CCCCC2)n1 [Example 24, 4-(trifluoromethyl)benzyl (1-(2-cyanopyrimidin-4-yl)cyclohexyl)carbamate]
> 10000 nM | 41 nM | > 10000 nM | > 10000 nM | COc1ccc(COC(=O)NC2(c3ccnc(C#N)n3)CCCCC2)cc1 [Example 25, 4-methoxybenzyl (1-(2-cyanopyrimidin-4-yl)cyclohexyl)carbamate]
> 10000 nM | 61.7 nM | > 10000 nM | 5950 nM | N#Cc1nccc(C2(NC(=O)OCc3cccc4ccccc34)CCCCC2)n1 [Example 26, naphthalen-1-ylmethyl (1-(2-cyanopyrimidin-4-yl)cyclohexyl)carbamate]
> 10000 nM | 22.4 nM | 7780 nM | 895 nM | N#Cc1nccc(C2(NC(=O)OCc3ccc(F)cc3)CCCCC2)n1 [Example 27, 4-fluorobenzyl (1-(2-cyanopyrimidin-4-yl)cyclohexyl)carbamate]
> 10000 nM | 35.8 nM | > 10000 nM | 8780 nM | N#Cc1nccc(C2(NC(=O)OCc3ccccc3Cl)CCCCC2)n1 [Example 28, 2-chlorobenzyl (1-(2-cyanopyrimidin-4-yl)cyclohexyl)carbamate]
> 10000 nM | 1570 nM | > 10000 nM | > 10000 nM | CS(=O)(=O)c1ccc(-c2ccc(COC(=O)NC3(c4ccnc(C#N)n4)CCCC3)cc2)cc1 [Example 29, (4′-(methylsulfonyl)-[1,1′-biphenyl]-4-yl)methyl (1-(2-cyanopyrimidin-4-yl)cyclopentyl)carbamate]
> 10000 nM | 355 nM | 9450 nM | > 10000 nM | CS(=O)(=O)c1ccc(-c2cccc(COC(=O)NC3(c4ccnc(C#N)n4)CCCC3)c2)cc1 [Example 30, (4′-(methylsulfonyl)-[1,1′-biphenyl]-3-yl)methyl (1-(2-cyanopyrimidin-4-yl)cyclopentyl)carbamate]
